Literature values, collected in US7163917B2, “Synthesis method of alanylglutamine” (priority 2002, dated 2007).
Peptide text beside a SMILES is read from it.

How the values were obtained:
[1] = background statement
[2] = solution, storage, heating to sterilize
[3] = within human body; quickly degraded into composition amino acids
[4] = healthy human body, long period intravenous drip

CC(=O)N[C@@H](CCC(N)=O)C(=O)O [acetylglutamine, reference compound]
quantity absorbed that is excreted from urea [1]: 40%
stability (in words) [2]: stable at heating

C[C@H](N)C(=O)N[C@@H](CCC(N)=O)C(=O)O [L-Ala-L-Gln, L-alanyl-L-glutamine] (H-Ala-Gln-OH)
solubility relative to GLN monomer (synthesized by chemical method, after purification): 20 times
stability (in words) [2]: stable in storage and at heating for sterilization
half-life (in words) [3]: short
kidney functions [4]: not influenced
side effects and harmful reaction [4]: no side effects and harmful reaction occur

NC(=O)CC[C@H](N)C(=O)O [GLN, glutamine]
solubility (in words): low in solubility

NCC(=O)N[C@@H](CCC(N)=O)C(=O)O [glycylglutamine, L-glycyl-L-glutamine, reference compound] (H-Gly-Gln-OH)
half-life (in words) [3]: short
